# Where two headings read alike, the source gives them in different places.
# Key:
# [1] = tested on: Ovarian Cancer cell lines; settings: for GI50 / CC50: Homo sapiens
# SNB-19 = format: cell-based; settings: SNB-19, CNS Cancer
# T-47D = format: cell-based; settings: Breast Cancer
# Melanoma cell lines = settings: for GI50 / CC50: Homo sapiens
# Renal Cancer cell lines = settings: for GI50 / CC50: Homo sapiens
# Colon cancer cell lines = settings: for GI50 / CC50: Homo sapiens
# Leukemia cell lines = settings: for GI50 / CC50: Homo sapiens
# COLO 205 = format: cell-based; settings: COLO 205, Colon cancer
# [2] = read-out: GI50, values range inside panel
# [3] = read-out: LC50, values range inside panel
# [4] = Homo sapiens, read-out: LC50 (the source's name)
structure (smiles),measurement,setting,value
"O=C(COc1ccc(Cl)cc1/C=c1\sc2ncnn2c1=O)Nc1ccc(Cl)cc1 [Compound 2h, (Z)-2-(4-Chloro-2-((6-oxothiazolo[3,2-b][1,2,4]triazol-5(6H)-ylidene)methyl)phenoxy)-N-(4-chlorophenyl)acetamide]",GI50,"[1]; read-out: GI50, panel MG_MID",8.05 µM
same,GI50,[1]; [2],2.11 to 15.5 µM
same,CC50,"[1]; read-out: LC50, panel MG_MID",52.1 µM
same,CC50,[1]; [3],19.5 to 97.7 µM
same,"TGI, panel MG_MID",[1]; Ovarian Cancer subpanel,20.34 µM
same,"TGI, values range inside panel",[1]; Ovarian Cancer subpanel,5.62 to 30.90 µM
same,GI50,"SF-295; Homo sapiens, SF-295",1.86 µM
same,CC50,"SF-295; Homo sapiens, SF-295, read-out: LC50",18.6 µM
same,TGI,"SF-295; SF-295, CNS Cancer",5.24 µM
same,"TGI, panel MG_MID",Breast Cancer cell lines; Breast Cancer subpanel,15.61 µM
same,"TGI, values range inside panel",Breast Cancer cell lines; Breast Cancer subpanel,4.07 to 41.68 µM
same,GI50,"Breast Cancer cell lines; Homo sapiens, read-out: GI50, panel MG_MID",4.48 µM
same,CC50,"Breast Cancer cell lines; Homo sapiens, read-out: LC50, panel MG_MID",46.1 µM
same,GI50,"Breast Cancer cell lines; read-out: GI50, values range inside panel, Breast Cancer subpanel",0.01 to 15.5 µM
same,GI50,"UACC-62; Homo sapiens, UACC-62",2.69 µM
same,CC50,"UACC-62; Homo sapiens, UACC-62, read-out: LC50",38 µM
same,TGI,"UACC-62; UACC-62, Melanoma",14.79 µM
same,TGI,"HCT-116; HCT-116, Colon cancer",20.89 µM
same,GI50,"HCT-116; Homo sapiens, HCT-116",7.58 µM
same,CC50,"HCT-116; Homo sapiens, HCT-116, read-out: LC50",45.7 µM
same,GI50,SNB-19; Homo sapiens,3.8 µM
same,CC50,SNB-19; [4],38 µM
same,TGI,SNB-19,14.45 µM
same,GI50,"SF-539; Homo sapiens, SF-539",1.77 µM
same,CC50,"SF-539; Homo sapiens, SF-539, read-out: LC50",12.6 µM
same,TGI,"SF-539; SF-539, CNS Cancer",4.46 µM
same,GI50,"SK-OV-3; Homo sapiens, SK-OV-3",15.5 µM
same,CC50,"SK-OV-3; Homo sapiens, SK-OV-3, read-out: LC50",53.7 µM
same,TGI,"SK-OV-3; SK-OV-3, Ovarian Cancer",28.84 µM
same,TGI,"HOP-92; HOP-92, NSCLC",11.74 µM
same,GI50,"HOP-92; Homo sapiens, HOP-92",2.29 µM
same,CC50,"HOP-92; Homo sapiens, HOP-92, read-out: LC50",34.7 µM
same,TGI,T-47D,25.70 µM
same,GI50,"T-47D; Homo sapiens, T47D",7.76 µM
same,CC50,"T-47D; Homo sapiens, T47D, read-out: LC50 (the source's name)",28.8 µM
same,TGI,"A498; A498, Renal Cancer",22.38 µM
same,GI50,"A498; Homo sapiens, A498",10.5 µM
same,CC50,"A498; Homo sapiens, A498, read-out: LC50",46.8 µM
same,GI50,"Melanoma cell lines; read-out: GI50, panel MG_MID",4.79 µM
same,GI50,Melanoma cell lines; [2],2.63 to 8.31 µM
same,CC50,"Melanoma cell lines; read-out: LC50, panel MG_MID",41.2 µM
same,CC50,Melanoma cell lines; [3],33.1 to 51.3 µM
same,"TGI, panel MG_MID",Melanoma cell lines; Melanoma subpanel,16.49 µM
same,"TGI, values range inside panel",Melanoma cell lines; Melanoma subpanel,11.22 to 20.89 µM
same,GI50,"Renal Cancer cell lines; read-out: GI50, panel MG_MID",5.37 µM
same,GI50,Renal Cancer cell lines; [2],1.62 to 12.6 µM
same,CC50,"Renal Cancer cell lines; read-out: LC50, panel MG_MID",40.5 µM
same,CC50,Renal Cancer cell lines; [3],28.8 to 50.1 µM
same,"TGI, panel MG_MID",Renal Cancer cell lines; Renal Cancer subpanel,16.40 µM
same,"TGI, values range inside panel",Renal Cancer cell lines; Renal Cancer subpanel,8.12 to 25.11 µM
same,TGI,"HOP-62; HOP-62, NSCLC",16.59 µM
same,GI50,"HOP-62; Homo sapiens, HOP-62",4.67 µM
same,CC50,"HOP-62; Homo sapiens, HOP-62, read-out: LC50",42.6 µM
same,"TGI, panel MG_MID",Colon cancer cell lines; Colon cancer subpanel,17.39 µM
same,"TGI, values range inside panel",Colon cancer cell lines; Colon cancer subpanel,10.96 to 21.37 µM
same,GI50,"Colon cancer cell lines; read-out: GI50, panel MG_MID",6.13 µM
same,GI50,Colon cancer cell lines; [2],2.45 to 9.33 µM
same,CC50,"Colon cancer cell lines; read-out: LC50, panel MG_MID",41.4 µM
same,CC50,Colon cancer cell lines; [3],33.1 to 45.7 µM
same,GI50,"K-562; Homo sapiens, K562",2.51 µM
same,CC50,"K-562; Homo sapiens, K562, read-out: LC50",49 µM
same,TGI,"K-562; K-562, Leukemia",14.45 µM
same,GI50,"MDA-MB-435; Homo sapiens, MDA-MB-435",2.95 µM
same,CC50,"MDA-MB-435; Homo sapiens, MDA-MB-435, read-out: LC50",28.8 µM
same,TGI,"MDA-MB-435; MDA-MB-435, Breast Cancer",12.58 µM
same,GI50,"OVCAR-3; Homo sapiens, OVCAR-3",2.18 µM
same,CC50,"OVCAR-3; Homo sapiens, OVCAR-3, read-out: LC50",19.5 µM
same,TGI,"OVCAR-3; OVCAR-3, Ovarian Cancer",5.62 µM
same,GI50,CCRF-CEM; Homo sapiens,1.35 µM
same,CC50,"CCRF-CEM; Homo sapiens, read-out: LC50",7.58 µM
same,TGI,CCRF-CEM; Leukemia,3.16 µM
same,GI50,"KM12; Homo sapiens, KM12",2.45 µM
same,CC50,"KM12; Homo sapiens, KM12, read-out: LC50",33.1 µM
same,TGI,"KM12; KM12, Colon cancer",10.96 µM
same,GI50,EKVX; Homo sapiens,2.51 µM
same,CC50,"EKVX; Homo sapiens, read-out: LC50",31.6 µM
same,TGI,EKVX; NSCLC,9.99 µM
same,GI50,"SF-268; Homo sapiens, SF-268",2.39 µM
same,CC50,"SF-268; Homo sapiens, SF-268, read-out: LC50",37.1 µM
same,TGI,"SF-268; SF-268, CNS Cancer",10.47 µM
same,GI50,"SK-MEL-28; Homo sapiens, SK-MEL-28",6.16 µM
same,CC50,"SK-MEL-28; Homo sapiens, SK-MEL-28, read-out: LC50",51.3 µM
same,TGI,"SK-MEL-28; SK-MEL-28, Melanoma",20.41 µM
same,GI50,"Leukemia cell lines; read-out: GI50, panel MG_MID",1.92 µM
same,GI50,Leukemia cell lines; [2],1.35 to 2.69 µM
same,CC50,"Leukemia cell lines; read-out: LC50, panel MG_MID",26.8 µM
same,CC50,Leukemia cell lines; [3],7.58 to 49 µM
same,"TGI, panel MG_MID",Leukemia cell lines; Leukemia subpanel,6.85 µM
same,"TGI, values range inside panel",Leukemia cell lines; Leukemia subpanel,3.16 to 14.45 µM
same,TGI,COLO 205,19.95 µM
same,GI50,COLO 205; Homo sapiens,7.58 µM
same,CC50,COLO 205; [4],44.7 µM
same,TGI,"HL-60 (TB); HL-60 (TB), Leukemia",9.54 µM
same,GI50,"HL-60 (TB); Homo sapiens, HL-60",2.69 µM
same,CC50,"HL-60 (TB); Homo sapiens, HL-60, read-out: LC50",37.1 µM
same,GI50,"RXF 393; Homo sapiens, RXF 393",1.9 µM
same,CC50,"RXF 393; Homo sapiens, RXF 393, read-out: LC50",36.3 µM
same,TGI,"RXF 393; RXF 393, Renal Cancer",8.51 µM
same,GI50,"MOLT-4; Homo sapiens, MOLT-4",1.9 µM
same,CC50,"MOLT-4; Homo sapiens, MOLT-4, read-out: LC50",22.9 µM
same,TGI,"MOLT-4; MOLT-4, Leukemia",5.01 µM
same,TGI,"CAKI-1; CAKI-1, Renal Cancer",8.12 µM
same,GI50,"CAKI-1; Homo sapiens, CAKI-1",2.39 µM
same,CC50,"CAKI-1; Homo sapiens, CAKI-1, read-out: LC50",28.8 µM
same,GI50,"UO-31; Homo sapiens, UO-31",2.29 µM
same,CC50,"UO-31; Homo sapiens, UO-31, read-out: LC50",44.7 µM
same,TGI,"UO-31; UO-31, Renal Cancer",17.37 µM

# From publication PMC7926352, “Synthesis, Characterization and In Vitro Evaluation of Novel 5-Ene-thiazolo[3,2-b][1,2,4]triazole-6(5H)-ones as Possible Anticancer Agents” (Molecules, 2021)
